According to the supplement of paper PMC10307832:

Experiments:
Experiment in all cases: relative viability (nuclei count vs DMSO), 5 days (fraction); higher = more cells survive
NCI-H3122 = system: NCI-H3122
In short: (§1)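 For relative viability, nuclei counts in treated wells were divided by those in vehicle wells. Lung cancer cell lines had been pin-tool dosed in 1536-well plates the day after seeding and cultured for 5 days, then fixed and stained in one step (final 0.05% Triton X-100, 1% formaldehyde, 1 ug/ml Hoechst) and imaged at 4×. Doses were one drug alone or a fixed anchor-drug dose plus five library-drug doses (not always all listed) in √10 steps, and values are duplicate-plate medians.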

201T = system: 201T
In short: as §1

NCI-H647 = system: NCI-H647
In short: as §1

NCI-H23 = system: NCI-H23
In short: as §1

NCI-H1395 = system: NCI-H1395
In short: as §1

HCC-44 = system: HCC-44
In short: as §1

BEN = system: BEN
In short: as §1

NCI-H2087 = system: NCI-H2087
In short: as §1

LOU-NH91 = system: LOU-NH91
In short: as §1

NCI-H441 = system: NCI-H441
In short: as §1

NCI-H2023 = system: NCI-H2023
In short: as §1

NCI-H838 = details: first compound 0.08 µM
In short: as §1

## Oc1nc(-c2ccc(C(F)(F)F)cc2)nc2c1CSCC2 [XAV939] + CCNC(=O)c1noc(-c2cc(C(C)C)c(O)cc2O)c1-c1ccc(CN2CCOCC2)cc1 [Luminespib] (partner 0.01 µM)
NCI-H3122; first compound 0.08 µM
  relative viability: 0.0855
NCI-H3122; first compound 0.253 µM
  relative viability: 0.0791
NCI-H3122; first compound 0.8 µM
  relative viability: 0.0658
NCI-H3122; first compound 2.53 µM
  relative viability: 0.0658
201T; first compound 0.08 µM
  relative viability: 1.02
201T; first compound 0.253 µM
  relative viability: 0.994
201T; first compound 0.8 µM
  relative viability: 1.05
201T; first compound 2.53 µM
  relative viability: 0.877
NCI-H647; first compound 0.08 µM
  relative viability: 0.252
NCI-H647; first compound 0.253 µM
  relative viability: 0.173
NCI-H647; first compound 0.8 µM
  relative viability: 0.156
NCI-H647; first compound 2.53 µM
  relative viability: 0.143
NCI-H23; first compound 0.08 µM
  relative viability: 0.251
NCI-H23; first compound 0.253 µM
  relative viability: 0.214
NCI-H23; first compound 0.8 µM
  relative viability: 0.224
NCI-H23; first compound 2.53 µM
  relative viability: 0.221
NCI-H1395; first compound 0.08 µM
  relative viability: 0.614
NCI-H1395; first compound 0.253 µM
  relative viability: 0.725
NCI-H1395; first compound 0.8 µM
  relative viability: 0.721
NCI-H1395; first compound 2.53 µM
  relative viability: 0.662
HCC-44; first compound 0.08 µM
  relative viability: 1.61
HCC-44; first compound 0.253 µM
  relative viability: 0.981
HCC-44; first compound 0.8 µM
  relative viability: 1.12
HCC-44; first compound 2.53 µM
  relative viability: 0.974
BEN; first compound 0.08 µM
  relative viability: 0.237
BEN; first compound 0.253 µM
  relative viability: 0.211
BEN; first compound 0.8 µM
  relative viability: 0.334
BEN; first compound 2.53 µM
  relative viability: 0.262
NCI-H2087; first compound 0.08 µM
  relative viability: 0.165
NCI-H2087; first compound 0.253 µM
  relative viability: 0.128
NCI-H2087; first compound 0.8 µM
  relative viability: 0.152
NCI-H2087; first compound 2.53 µM
  relative viability: 0.142
LOU-NH91; first compound 0.08 µM
  relative viability: 0.322
LOU-NH91; first compound 0.253 µM
  relative viability: 0.337
LOU-NH91; first compound 0.8 µM
  relative viability: 0.432
LOU-NH91; first compound 2.53 µM
  relative viability: 0.295
NCI-H441; first compound 0.08 µM
  relative viability: 0.374
NCI-H441; first compound 0.253 µM
  relative viability: 0.355
NCI-H441; first compound 0.8 µM
  relative viability: 0.245
NCI-H441; first compound 2.53 µM
  relative viability: 0.282
NCI-H2023; first compound 0.08 µM
  relative viability: 0.888
NCI-H2023; first compound 0.253 µM
  relative viability: 0.604
NCI-H2023; first compound 0.8 µM
  relative viability: 0.589
NCI-H2023; first compound 2.53 µM
  relative viability: 0.454
NCI-H838
  relative viability: 0.338
